# Where a name gives a salt, the structure may show the parent alone.
# Columns and labels:
# Solubility determination = format: physicochemical; conditions: water, result in words
# [1] = Blood drug level in the rat deep vein thrombosis model; conditions: intravenous infusion of 0.1 mg/kg/h compound V
# Description: Preparation of solution: An appropriate amount of Form I was weighed, dissolved in a vehicle (0.5% (W/V) Natrosol™ 250 HX solution containing 0.1% (W/V) L(+)-tartaric acid) to formulate into the required concentration and then stirred uniformly, so that the drug was administered according to the predetermined dose.
# Procedure: Rats were acclimatized for 3 days and randomly divided into three groups: model group, positive control group/subject group and bridging group, with 8 to 10 rats in each group. […] Rats in each group were anesthetized with urethane (20%, 5 mL/kg) via intraperitoneal injection. The abdominal cavity was exposed, the vena cava was bluntly separated, and two surgical sutures of 8 to 10 cm in length were placed under the blood vessels, both 1 cm apart. When the modeling time of each group was reached, rabbit thromboplastin (0.02 mg/kg) was injected into the left femoral vein, and the two sutures were knotted 10 s later, and the knotted portion of the suture was cut with ophthalmic scissors after 1 h. The thrombus was removed and weighed.
# [2] = system: Rats model of deep vein thrombosis; test: Rat model of deep vein thrombosis (thrombus weight); format: in vivo, SD rats
# Description: Experimental animals: SD rats (body weight 220 to 250 g, sex: male)
# The thrombus was removed and weighed.
# [3] = Moisture adsorption / hygroscopicity (DVS); format: physicochemical
# [4] = Stability at room temperature (10 days); format: physicochemical
# [5] = 0.1 mg/kg/h, intravenous infusion
structure (smiles),measurement,setting,value
CCCCCCOC(=O)NC(=N)c1ccc(CNC(=O)[C@@H]2CCCN2C(=O)[C@@H](CC(C)C)NCC(=O)OCC)cc1,aqueous solubility,Solubility determination,insoluble in water
CC(C)C[C@@H](NCC(=O)O)C(=O)N1CCC[C@H]1C(=O)NCc1ccc(C(=N)N)cc1 [Compound V],Blood drug level,[1],174.2 ± 51.8 ng/mL
same,Thrombosis inhibition rate (%),[2]; [5],48.2%
same,Thrombus weight,[2]; [5],36.8 ± 6.6 mg
same,antithrombotic effect compared with oral administration of 5 mg/kg Form I,[2]; intravenous infusion of 0.1 mg/kg/h in rats,comparable
"CCCCCCOC(=O)N=C(N)c1ccc(NCc2nc3cc(C(=O)N(CCC(=O)OCC)c4ccccn4)ccc3n2C)cc1 [Dabigatran etexilate, reference compound]",Thrombosis inhibition rate (%),"[2]; 5 mg/kg, oral gavage",69.9%
same,Thrombus weight,"[2]; 5 mg/kg, oral gavage",21.4 ± 8.2 mg
CCCCCCOC(=O)NC(=N)c1ccc(CNC(=O)[C@@H]2CCCN2C(=O)[C@@H](CC(C)C)NCC(=O)OCC)cc1 [Form A of the monohydrochloride],Moisture adsorption content (wt%),[3],0.5 wt%
same,Hygroscopicity,[3]; result in words,Slightly hygroscopic
same,Stability at room temperature (10 days),[4],"White powder, crystalline form remains unchanged (10 days)"
